From patent US12492182B2, “Hydroxytriazine compounds and pharmaceutical use thereof” (Japan Tobacco Inc., priority 2015, dated 2025)

Columns and labels:
[1] = test system: A549 cell; test: Evaluation of PGE2 production inhibitory action using A549 cell (IL-1β stimulated); assay type: cell-based, human; details: Homo sapiens, A549, 18 h, IC50 value; A549 cell, recombinant IL-1β 1 ng/mL, 18 hr, PGE2 in supernatant; read-out: cell PGE2 production inhibitory activity
Protocol: Experimental Example 2: Evaluation of PGE2 Production Inhibitory Action Using A549 Cell
A549 cell (Japan Health Sciences Foundation Research Resources Bank), which is cell line derived from humans lung cancer, was suspended in assay medium (Ham's F-12K (Wako, #080-08565) containing 2% FBS (Hyclone Laboratories, #SH30910.03), 100 units/mL penicillin and 100 μg/mL streptomycin (Invitrogen, #15140-122)), the suspension was added at 2.5×10^4 cells/100 μL/well to 96 well flat-bottom plate (Corning, #353072), and the plate was left standing for 20 hr in a CO2 incubator set at 37° C. The test article was serially diluted with DMSO (Nacalai Tesque, #13407-45), and then 20-fold diluted with the assay medium to prepare a test article solution having a ten-fold concentration of the final concentration. The final DMSO concentration during the reaction was set to 0.5% (v/v). The medium was removed from the plate in which the cell was added, new assay medium was added at 160 μL/well to the plate, and the plate was left standing for 10 min in a CO2 incubator. Then, the test article solution was added at 20 μL/well to the plate, and the plate was left standing for 30 min in a CO2 incubator. Next, recombinant humans IL-1β (R&D Systems, #201-LB) as a stimulant to enhance PGE2 production due to increase of mPGES-1 mRNA expression was added at 20 μL/well (the final concentration was 1 ng/mL) to the plate, and the plate was left standing for 18 hr in a CO2 incubator. The supernatant was collected at 180 μL/well, and the PGE2 concentration was measured using Prostaglandin E2 assay (CISbio Bioassays, #62P2APEC) according to the manual. As the reference standard for analytical curve, PGE2 (Cayman Chemical, #14010) was used. Using EnVision 2104 (Perkin Elmer), the time-resolved fluorescence at 620 nm and 665 nm relative to the excitation light at 337 nm was measured. PGE2 concentration was extrapolated from the PGE2 analytical curve. Average of the PGE2 concentrations of the respectively-treated wells was used as the data.
The PGE2 production inhibitory activity (%) of the test article was calculated according to the following Formula 3. PGE2 production inhibitory activity(%)=(PGE2A−PGE2X)/(PGE2A−PGE2B)×100 [Formula 3] • PGE2A: PGE2 concentration of vehicle-treated well • PGE2B: PGE2 concentration of blank well (no addition of recombinant humans IL-1B) • PGE2X: PGE2 concentration of test article-treated well

[2] = target: T1, human mPGES-1 (Homo sapiens, UniProt O14684); test: Evaluation of human mPGES-1 enzyme inhibitory activity (HTRF measurement of PGE2); assay type: biochemical; details: IC50 value; microsome fraction of CHO-S cells expressing human mPGES-1, PGH2 substrate, PGE2 by HTRF; read-out: humans mPGES-1 enzyme inhibitory activity
T1 construct: made in house; host or cells: Chinese hamster ovary-derived cells (FreeStyle CHO-S), transient transfection of pcDNA3.1(+)/human mPGES-1; microsome fraction
T1 sequence (O14684 1-152): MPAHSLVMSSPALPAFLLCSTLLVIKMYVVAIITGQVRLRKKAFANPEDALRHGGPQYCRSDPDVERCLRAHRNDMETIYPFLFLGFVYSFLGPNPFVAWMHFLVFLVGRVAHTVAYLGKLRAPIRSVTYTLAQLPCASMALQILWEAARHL
Protocol: Experimental Example 1: Evaluation of Human mPGES-1 Enzyme Inhibitory Activity
The human mPGES-1 enzyme inhibitory activity of a test article was evaluated according to the report of Xu et al. (XU, D et al. MF63 [2-(6-chloro-1H-phenanthro[9,10-d]imidazol-2-yl)-isophthalonitrile], a selective microsomal prostaglandin E synthase-1 inhibitor relieves pyresis and pain in preclinical models of inflammation. J Pharmacol Exp Ther. September 2008, Vol. 326, No. 3, pages 754-763). The amount of PGE2 produced by human mPGES-1 in the presence of a test article was measured by the HTRF (homogeneous time resolved fluorescence) method, and the human mPGES-1 enzyme inhibitory activity of the test article was determined.
1) Preparation of Human mPGES-1 Expressing Cell Microsome Fraction
A DNA fragment containing human mPGES-1, which is added with a BamHI recognition cleavage sequence just before the translation initiation codon and an EcoRI recognition cleavage sequence just after the translation termination codon, was amplified by the PCR (Polymerase Chain Reaction) method using a human mPGES-1 expression plasmid DNA (pME-18S/iPGES-1) prepared in-house as a template. The purified DNA fragment was digested with BamHI and EcoRI, and ligated to pcDNA3.1(+) (Invitrogen, model number V790-20), similarly_digested with BamHI and EcoRI, by using a DNA Ligation kit ver. 2.1 (Takara Bio, model number 6022). The human mPGES-1 expression plasmid DNA was isolated from Escherichia coli DH5a (TOYOBO, model number DNA-903) transformed with the obtained ligation product. The base sequence of human mPGES-1 cloned to a vector was determined by the Dye Terminator method using BigDye Terminator v3.1 Cycle Sequencing Kit (Applied Biosystems, #4337455). The determined sequence was identical with the sequence of the protein translational region of human mPGES-1 (Accession number NM 004878) registered in the NCBI Reference Database.
Human mPGES-1 expression plasmid DNA was transfected into Chinese hamster ovary-derived cells (FreeStyle CHO-S Cell, Invitrogen, #R^800-07) by using a transgene reagent (FreeStyle MAX Reagent (Invitrogen, #16447-100)), and cultured with shaking (8% CO2, 37° C.) in a medium containing 8 mmol/L L-glutamine (GIBCO FreeStyle CHO Expression Medium, Invitrogen, #12651-022) for 48 hr.
The CHO-S cells were suspended in Homogenate Buffer (100 mmol/L potassium phosphate (pH 7.4), 250 mmol/L Sucrose, 100 mmol/L EDTA, complete EDTA free (Roche, #1873580)). Using an ultrasonic disruptor UD-201 (Tomy Seiko), the suspended cells were disrupted at output:3, duty cycle:50 for 30 seconds. The precipitate was removed by centrifugation (1,000×g, 5 min, 4° C.), and the supernatant was centrifuged (5,000×g, 10 min, 4° C.). The supernatant was further centrifuged (105,000×g, 60 min, 4° C.). The obtained precipitate was suspended in Resuspension Buffer (100 mmol/L potassium phosphate (pH 7.4), 250 mmol/L sucrose, 100 mmol/L EDTA, 10% glycerol) to give a microsome fraction.
The protein concentration of the microsome fraction was measured by the Bradford method (Protein Assay Kit, Bio-Rad). The microsome fraction was rapidly frozen in liquid nitrogen and preserved at −80° C. Human mPGES-1 in the microsome fraction was detected by Western Blot using rabbit anti-mPGES-1 polyclonal antibody (ThermoFisher Scientific, #PA1-10264).
2) Evaluation of Human mPGES-1 Enzyme Inhibitory Activity
A test article solution diluted with 0.1 mol/L potassium phosphate, pH 7.4 (hereinafter to be referred to as KPB) or DMSO (Nacalai Tesque, #13407-45) was added at 5 μL/well to 96 well V-bottom plate (Corning, #3363). The final DMSO concentration during the reaction was set to 2%(v/v). Furthermore, a microsome fraction of CHO-S cells expressing human mPGES-1, which was diluted with reduced GSH (12.5 mmol/L KPB solution, SIGMA, #G6529-25G) such that the protein concentration was 5 μg/mL, was added at 20 μL/well. […]

SMILES	IC50 [1] [nM]	IC50 [2] [nM]
COC1(C(=O)NCc2ccc(Cl)c(-c3nc(O)nc(-c4cccc(C(C)(C)C)c4)n3)c2)CCCC1 [Example 22]	16	0.9
CCCCCCOc1ccc(-c2nc(O)nc(-c3cc(CNC(=O)C(C)(C)C(F)(F)F)ccc3Cl)n2)cn1 [Example 23]	2.4	7.2
COC1(C(=O)NCc2ccc(Cl)c(-c3nc(O)nc(-c4cccc(C(C)(C)C)c4)n3)c2)CCCCC1 [Example 24]	8.2	1.6
CCC[C@@H](C)Oc1ccc(-c2nc(O)nc(-c3cc(CNC(=O)C(C)(C)C(F)(F)F)ccc3Cl)n2)cn1 [Example 25, N-(4-chloro-3-{4-hydroxy-6-[6-((R)-1-methylbutoxy)pyridin-3-yl]-1,3,5-triazin-2-yl}benzyl)-3,3,3-trifluoro-2,2-dimethylpropionamide]	2.9	3.1
COc1ccc(-c2nc(O)nc(-c3cc(CNC(=O)C(C)(C)C(F)(F)F)ccc3Cl)n2)cn1 [Example 26]	260	0.7
CCOc1ccc(-c2nc(O)nc(-c3cc(CNC(=O)C(C)(C)C(F)(F)F)ccc3Cl)n2)cn1 [Example 27]	79	0.7
COc1ccc(-c2nc(O)nc(-c3cc(CNC(=O)C4(OC)CCCCC4)ccc3Cl)n2)cn1 [Example 28]	100	1.8
COc1ccc(-c2nc(O)nc(-c3cc(CNC(=O)C4(C(F)(F)F)CCCC4)ccc3Cl)n2)cn1 [Example 29]	69	0.8
COc1ccc(-c2nc(O)nc(-c3cc(CNC(=O)C4(C(F)(F)F)CCCCC4)ccc3Cl)n2)cn1 [Example 30]	33	0.8
CCOc1ccc(-c2nc(O)nc(-c3cc(CNC(=O)C4(OC)CCCCC4)ccc3Cl)n2)cn1 [Example 31]	86	1
CCOc1ccc(-c2nc(O)nc(-c3cc(CNC(=O)C4(C(F)(F)F)CCCC4)ccc3Cl)n2)cn1 [Example 32]	40	0.7
CCOc1ccc(-c2nc(O)nc(-c3cc(CNC(=O)C4(C(F)(F)F)CCCCC4)ccc3Cl)n2)cn1 [Example 33]	11	0.8
COc1ccc(-c2nc(O)nc(-c3cc(CNC(=O)C4(OC)CCCC4)ccc3Cl)n2)cn1 [Example 34]	1000	1.6
COc1ccc(-c2nc(O)nc(-c3cc(CNC(=O)C(C)(C)C(F)(F)F)ccc3Cl)n2)cc1C(C)C [Example 35]	14	2
COc1ccc(-c2nc(O)nc(-c3cc(CNC(=O)C(C)(C)C(F)(F)F)ccc3Cl)n2)cc1C(C)(C)C [Example 36]	10	5.8
CCOc1ccc(-c2nc(O)nc(-c3cc(CNC(=O)C4(OC)CCCC4)ccc3Cl)n2)cn1 [Example 37]	170	3
CC(C)c1cccc(-c2nc(O)nc(-c3cc(CNC(=O)C4(F)CC4)ccc3Cl)n2)c1 [Example 38]	130	2.9
CC(C)c1cccc(-c2nc(O)nc(-c3cc(CNC(=O)C4(F)CCCCC4)ccc3Cl)n2)c1 [Example 39]	57	3.9
CC(C)Oc1ccc(-c2nc(O)nc(-c3cc(CNC(=O)C(C)(C)C(F)(F)F)ccc3Cl)n2)cn1 [Example 40]	45	0.8
CC(C)c1cccc(-c2nc(O)nc(-c3cc(CNC(=O)C4(F)CCCC4)ccc3Cl)n2)c1 [Example 41]	23	1.3
CC[C@@H](C)Oc1ccc(-c2nc(O)nc(-c3cc(CNC(=O)C(C)(C)C(F)(F)F)ccc3Cl)n2)cn1 [Example 42]	7.9	1.3
CCC(C)(C)c1cccc(-c2nc(O)nc(-c3cc(CNC(=O)C(C)(C)C(F)(F)F)ccc3Cl)n2)c1 [Example 43]	6.5	3.5
COC(C)(C)c1cccc(-c2nc(O)nc(-c3cc(CNC(=O)C(C)(C)C(F)(F)F)ccc3Cl)n2)c1 [Example 44]	26	3.6
CCCOc1ccc(-c2nc(O)nc(-c3cc(CNC(=O)C4(C(F)(F)F)CCCC4)ccc3Cl)n2)cn1 [Example 45]	8	1.3
CCCOc1ccc(-c2nc(O)nc(-c3cc(CNC(=O)C4(C(F)(F)F)CCCCC4)ccc3Cl)n2)cn1 [Example 46]	4.1	3.2
CCCCC(C)(C)C(=O)NCc1ccc(Cl)c(-c2nc(O)nc(-c3ccc(OCCC)nc3)n2)c1 [Example 47]	100	2.1
CC(C)c1cc(-c2nc(O)nc(-c3cc(CNC(=O)C(C)(C)C(F)(F)F)ccc3Cl)n2)ccc1Cl [Example 48, N-{4-chloro-3-[4-(4-chloro-3-isopropylphenyl)-6-hydroxy-1,3,5-triazin-2-yl]benzyl}-3,3,3-trifluoro-2,2-dimethylpropionamide]	2.7	0.5
